Reference: paper PMC5669199, “CM352 Reduces Brain Damage and Improves Functional Recovery in a Rat Model of Intracerebral Hemorrhage” (Journal of the American Heart Association: Cardiovascular …, 2017)

Experiments:
cellular fibronectin = experiment: Plasma cellular fibronectin ELISA after ICH; assay type: in vivo, rat; conditions: 1 mg/kg iv after ICH; data not shown
Protocol: Blood samples (0.5 mL) were drawn from the tail vein before surgery, immediately after surgery, and at 1 hour, 3 hours, 24 hours, and 14 days. Citrate or EDTA plasma was obtained by centrifugation, and samples were stored at −80°C. Enzyme‐linked immunosorbent assay was used to measure interleukin‐6 (IL‐6, ref. KRC0061, Life Technologies, Thermo Fisher Scientific, Waltham, MA), cellular fibronectin (ref. MBS007311, MyBioSource, San Diego, CA), and thrombin‐antithrombin complex (Enzygnost TAT, ref. OWMG15, Siemens Healthcare, Erlangen, Germany) in plasma, as biomarkers of inflammation, cellular damage, and hypercoagulability, respectively. The intra‐assay and interassay coefficients of variation for all molecular markers were <10%.

[1] = Activated partial thromboplastin time in plasma after ICH; assay type: in vivo, rat; conditions: n=3
Protocol: Prothrombin time (PT) and activated partial thromboplastin time (aPTT) were measured with STA‐Neoplastin R and PTT reagents (STA‐Compact, Stago, Barcelona, Spain). PT results were expressed as percentage of the standard value, and aPTT results were expressed in seconds.

MMP‐7 = biological target: T1, MMP‐7 (Homo sapiens, UniProt P09237); experiment: MMP enzyme activity assay; assay type: biochemical; conditions: read-out: MMP Inhibitory Activity (IC50), MMP‐7
T1 construct: GenScript (contract testing)
T1 sequence (P09237 95-267): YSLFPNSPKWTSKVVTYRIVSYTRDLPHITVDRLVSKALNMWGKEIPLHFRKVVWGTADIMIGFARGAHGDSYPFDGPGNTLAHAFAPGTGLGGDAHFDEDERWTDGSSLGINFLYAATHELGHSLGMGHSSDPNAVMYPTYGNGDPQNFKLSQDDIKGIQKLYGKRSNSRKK
Protocol: (§1) Protease stock solutions (10 mmol/L) were diluted with assay buffer to make final test solutions containing no more than 2.0% DMSO. The samples were dispensed into plates; substrate was added and read with PHERAstar PLUS (BMG Labtech, Ortenberg, Germany) plate reader.

MMP‐9 = biological target: T2, MMP‐9 (Homo sapiens, UniProt P14780); experiment: MMP enzyme activity assay; assay type: biochemical; conditions: read-out: MMP Inhibitory Activity (IC50), MMP‐9
T2 construct: GenScript (contract testing)
T2 sequence (P14780 94-707, species assumed): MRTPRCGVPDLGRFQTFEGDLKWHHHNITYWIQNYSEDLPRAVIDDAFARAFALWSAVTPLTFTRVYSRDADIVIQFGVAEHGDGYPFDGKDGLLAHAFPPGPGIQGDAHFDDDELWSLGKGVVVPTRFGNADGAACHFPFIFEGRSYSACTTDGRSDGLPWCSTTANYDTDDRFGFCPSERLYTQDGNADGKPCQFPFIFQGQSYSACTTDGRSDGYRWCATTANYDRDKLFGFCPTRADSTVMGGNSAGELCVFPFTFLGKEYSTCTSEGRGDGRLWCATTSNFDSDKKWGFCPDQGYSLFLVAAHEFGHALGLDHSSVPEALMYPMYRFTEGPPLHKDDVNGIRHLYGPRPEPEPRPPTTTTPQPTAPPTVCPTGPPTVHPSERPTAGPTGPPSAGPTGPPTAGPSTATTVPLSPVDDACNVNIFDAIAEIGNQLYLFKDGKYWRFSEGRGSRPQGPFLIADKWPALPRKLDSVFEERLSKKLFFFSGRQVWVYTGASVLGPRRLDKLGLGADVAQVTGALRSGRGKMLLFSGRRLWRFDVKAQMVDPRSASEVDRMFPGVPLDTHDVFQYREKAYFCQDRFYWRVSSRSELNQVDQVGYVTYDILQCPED
Protocol: as §1

MMP‐2 = biological target: T3, MMP‐2 (Homo sapiens, UniProt P08253); experiment: MMP enzyme activity assay; assay type: biochemical; conditions: read-out: MMP Inhibitory Activity (IC50), MMP‐2
T3 construct: GenScript (contract testing)
T3 sequence (P08253 110-660): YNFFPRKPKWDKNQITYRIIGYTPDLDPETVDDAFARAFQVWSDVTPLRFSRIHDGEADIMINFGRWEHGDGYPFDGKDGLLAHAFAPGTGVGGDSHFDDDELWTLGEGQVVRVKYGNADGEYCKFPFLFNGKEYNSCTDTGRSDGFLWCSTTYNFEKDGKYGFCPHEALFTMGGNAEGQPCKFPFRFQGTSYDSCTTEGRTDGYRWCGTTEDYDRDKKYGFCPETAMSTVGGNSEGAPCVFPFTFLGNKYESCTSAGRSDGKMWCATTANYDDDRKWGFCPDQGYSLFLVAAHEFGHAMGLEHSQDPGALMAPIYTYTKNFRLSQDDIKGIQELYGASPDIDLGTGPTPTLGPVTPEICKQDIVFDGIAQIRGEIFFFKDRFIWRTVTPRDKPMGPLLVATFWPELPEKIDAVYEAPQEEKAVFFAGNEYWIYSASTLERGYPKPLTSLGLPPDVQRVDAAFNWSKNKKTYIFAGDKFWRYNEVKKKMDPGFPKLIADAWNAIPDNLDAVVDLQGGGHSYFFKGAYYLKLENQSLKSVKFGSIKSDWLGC
Protocol: as §1

[2] = biological target: bacterial collagenase type VII; experiment: Collagenase activity assay (FALGPA substrate); assay type: biochemical; conditions: tested 10 nmol/L to 10 μmol/L; no significant effect
Protocol: Enzymatic assay of collagenase was performed using FALGPA (Sigma‐Aldrich Corp, St. Louis, MO) as substrate, according to the manufacturer's recommendations. Briefly, proteolysis of 1 mmol/L FALGPA by 2 U/mL bacterial collagenase type VII (Sigma‐Aldrich Corp, St. Louis, MO) in reaction buffer (50 mmol/L Tricine; 10 mmol/L CaCl2; 400 mmol/L NaCl) was monitored spectrophotometrically (345 nm) for 5 minutes, in the presence of CM352, phenanthroline, or vehicle.

CNC(=O)c1ccc(Oc2ccc(S(=O)(=O)[C@]3(C(=O)NO)CCC4(CCNCC4)C3)cc2)cc1 [CM352, 4‐[4‐[[(3R)‐3‐(Hydroxycarbamoyl)‐8‐azaspiro[4.5]decan‐3‐yl]sulfonyl]phenoxy]‐N‐methylbenzamide]
cellular fibronectin levels versus control (cellular fibronectin): no differences
aPTT ([1]; 3 H): 21.7 ± 4.5 s
aPTT ([1]; 5 H): 21.7 ± 4.0 s
aPTT ([1]; 24 H): 21.7 ± 2.5 s
aPTT ([1]; Basal): 21.0 ± 4.0 s
IC50 (MMP‐7): 16000 nM
IC50 (MMP‐9): 10 nM
IC50 (MMP‐2): 8.4 nM
IC50 [2]: > 10000 nM
